These results are taken from PMC8955734, “4-Arylthiosemicarbazide Derivatives as Toxoplasmic Aromatic Amino Acid Hydroxylase Inhibitors and Anti-inflammatory Agents” (International Journal of Molecular Sciences, 2022).

Data set [1] has as its target T1, AAH2 (toxoplasmic aromatic amino acid hydroxylase 2), catalytic domain (Toxoplasma gondii, UniProt S8FBW5).
T1 construct: catalytic domain, pET-45b (His-tag), expressed in E. coli BL21 GOLD (DE3) pLysS, cobalt resin
T1 sequence (S8FBW5 156-565): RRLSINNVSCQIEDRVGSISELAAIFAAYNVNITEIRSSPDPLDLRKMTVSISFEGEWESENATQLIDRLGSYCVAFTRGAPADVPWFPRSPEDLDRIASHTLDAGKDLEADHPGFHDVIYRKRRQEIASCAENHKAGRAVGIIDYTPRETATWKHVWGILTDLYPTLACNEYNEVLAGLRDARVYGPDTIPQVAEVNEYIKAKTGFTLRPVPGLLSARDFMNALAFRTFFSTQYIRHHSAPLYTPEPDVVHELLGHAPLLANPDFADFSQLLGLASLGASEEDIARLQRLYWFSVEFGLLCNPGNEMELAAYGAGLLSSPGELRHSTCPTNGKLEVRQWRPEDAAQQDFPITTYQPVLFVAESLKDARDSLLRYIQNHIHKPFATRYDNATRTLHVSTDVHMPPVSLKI
The data set is described as follows: coupled NADH oxidation assay (dihydropteridine reductase), […] nm; fit to competitive inhibition equation. The conditions noted are these: read-out: KI ^c. It is filed as biochemical.

Data set [2] has as its target T2, AAH1 (toxoplasmic aromatic amino acid hydroxylase 1), catalytic domain (Toxoplasma gondii, UniProt S8G872).
T2 construct: catalytic domain, pET-45b (His-tag), expressed in E. coli BL21 GOLD (DE3) pLysS, cobalt resin
T2 sequence (S8G872 1-390 limits assumed): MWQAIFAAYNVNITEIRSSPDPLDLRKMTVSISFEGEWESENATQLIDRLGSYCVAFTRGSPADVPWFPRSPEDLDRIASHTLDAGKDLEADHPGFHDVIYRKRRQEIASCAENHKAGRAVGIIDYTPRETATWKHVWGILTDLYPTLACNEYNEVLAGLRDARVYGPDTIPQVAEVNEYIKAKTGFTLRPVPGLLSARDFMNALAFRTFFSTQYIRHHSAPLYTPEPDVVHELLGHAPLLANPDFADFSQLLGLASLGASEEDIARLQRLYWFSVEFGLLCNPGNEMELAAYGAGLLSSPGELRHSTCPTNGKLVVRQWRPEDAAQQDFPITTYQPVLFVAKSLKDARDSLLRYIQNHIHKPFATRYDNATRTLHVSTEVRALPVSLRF
The data set is described as above. It is filed as biochemical. The conditions noted are these: read-out: KI ^c.

Data set [3] has as its target T2, AAH1 (toxoplasmic aromatic amino acid hydroxylase 1), catalytic domain. The data set is described as follows: DARTS (Pronase protection, Western blot). It is filed as binding. Particulars: 10 µM compound, and dose-dependent; room temperature. (In general: A western blot detects proteins with antibodies after separation by electrophoresis.)
Substrate in the data set “purified protein”: N[C@@H](Cc1ccc(O)cc1)C(=O)O
Nature of the data set: purified protein. It is filed as biochemical, Toxoplasma gondii. Particulars: no inhibitor, 500 µM (6R)-BH4, 500 µM NADH, 10 µM ferrous ammonium sulfate, pH 7.5, 32 °C.

`Cc1nc[nH]c1C(=O)NNC(=S)Nc1cccc(I)c1` [6a]: the inhibition constant Ki – broadly, a dissociation constant, usually derived from enzyme kinetics or from competition with a known ligand – amounted to 3230 nM in data set [1] and 1260 nM in data set [2]. The “DARTS (Pronase protection, Western blot)” value in data set [3] is “Proteolysis of AAH1 by Pronase was clearly inhibited by the presence of 2a and 6a”.

For the molecule `Cc1nc[nH]c1C(=O)NNC(=S)Nc1ccc([N+](=O)[O-])cc1` [2a], the Ki came to 3690 nM in data set [1] and 1490 nM in data set [2]. In addition, the “DARTS (Pronase protection, Western blot)” value in data set [3] is “Proteolysis of AAH1 by Pronase was clearly inhibited by the presence of 2a and 6a”.

B1: AAH2 (toxoplasmic aromatic amino acid hydroxylase 2), catalytic domain (Toxoplasma gondii ME49) (protein)
chain: T1 sequence (S8FBW5 156-565)
notes: catalytic domain, pET-45b (His-tag), expressed in E. coli BL21 GOLD (DE3) pLysS, cobalt resin
For the molecule B1, in “purified protein”, the Km (as a rule, the concentration of substrate that gives half-maximal velocity) is 71 µM.

B2: AAH1 (toxoplasmic aromatic amino acid hydroxylase 1), catalytic domain (Toxoplasma gondii ME49) (protein)
chain: T2 sequence (S8G872 1-390 limits assumed)
notes: as for B1
For the molecule B2, in the data set “purified protein”, the Km is 30 µM.
